Source: patent publication US20170298051A1, “ACTIVATOR OF ADIPONECTIN RECEPTOR” (THE UNIVERSITY OF TOKYO, priority 2013, published 2017)

Target: T1, AdipoR1 (Homo sapiens, UniProt Q96A54)
T1 sequence (Q96A54 1-375): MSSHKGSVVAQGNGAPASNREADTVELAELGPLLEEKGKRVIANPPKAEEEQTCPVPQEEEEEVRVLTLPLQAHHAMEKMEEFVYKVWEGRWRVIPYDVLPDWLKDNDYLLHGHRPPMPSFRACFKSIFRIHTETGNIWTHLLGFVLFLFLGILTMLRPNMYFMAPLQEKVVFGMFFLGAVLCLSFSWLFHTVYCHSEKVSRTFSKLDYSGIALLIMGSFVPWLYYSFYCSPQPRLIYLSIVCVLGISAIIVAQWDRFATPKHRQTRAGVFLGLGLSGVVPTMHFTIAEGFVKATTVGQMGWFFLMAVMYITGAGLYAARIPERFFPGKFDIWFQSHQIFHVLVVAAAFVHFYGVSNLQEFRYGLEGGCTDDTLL
Assay: Measurement of AMPK phosphorylation ability (Assay 1), HEK 293T cells, Western blotting
Assay type: cell-based
Set-up: HEK 293T cells (ATCC; CRL-3216, medium; host or cells: HEK 293T
Details: 10 minutes
Method: The AMPK phosphorylation ability of the respective compounds according to the present invention was measured by using differentiated C2C12 cells or HEK 293T cells.
HEK 293T cells (ATCC; CRL-3216, medium; DMEM, Fetal Bovine Serum (FBS)) were cultured in a 12- or 24-well plate until they reached 100% confluency (37° C., 5% CO2).
After starvation, a test compound listed in Tables 10 and 11 (concentration: 25 μM, 50 μM) was added thereto, and after 10 minutes, the medium was discarded and the plate was frozen with liquid nitrogen.
To the 12- or 24-well cell plate which had been frozen was added 100 or 150 μL of Cell lysis buffer pH 7.4 (50 mM HEPES (pH 7.4), 2 mM sodium orthovanadate, 10 mM sodium pyrophosphate, 10 mM NaF, 2 mM EDTA, 2 mM EGTA, 0.1% (v/v) NP-40, 0.2 mM PMSF), and the cells were scraped off with a cell scraper, suspended and transferred into a micro centrifugal tube. And then, the cells were ultrasonically crushed (1 second×3 times) with a sonicator. Centrifugation was performed at 4° C. at 15,000 rpm for 15 minutes, and the supernatant was recovered into a new tube.
To 100 μL of the supernatant was added 25 μL of 5× sample buffer (280 mM Tris-HCl (pH 6.9), 40% glycerol, 10% (3-mercaptoethanol, 13% SDS, a small amount of bromophenol blue) and mixed together. The rest of the supernatant was used for protein quantification, and the protein concentrations were uniformed by adding 1× sample buffer depending on the concentration of each sample.
An electrophoresis chamber was filled with 1× SDS buffer (25 mM Tris-HCl, 250 mM glycine, 0.1% SDS), and the sample was applied to a well of polyacrylamide gel. Electrophoresis was performed until the bromophenol blue in the sample reached to the bottom of the gel.
A filter paper was soaked in 1× Transfer buffer sufficiently, above which the PVDF membrane and the gel after electrophoresis were stacked in this order, and thereabove a filter paper which had been soaked in 1× Transfer buffer sufficiently was further stacked, from which an air was removed and the resultant was set in semi-dry type transfer apparatus and transferred (7V, 35 minutes).
An unnecessary portion of the blotted membrane was cutoff, and the rest was immediately soaked in blocking buffer (5% skimmed milk in Rinse buffer), and shaken at room temperature at 40 rpm for 3 hours.
After blocking, the membrane was transferred into Rinse buffer, and washed at room temperature for 10 minutes while shaking. The membrane was soaked in a primary antibody solution (AMPK alpha Antibody (Cell signaling; #2532) 1/1,000 in Rinse buffer, Phospho-AMPK alpha (Thr172) (40H9) antibody (Cell signaling; #2535) 1/1,000 in Rinse buffer), and shaken at 4° C. at 40 rpm overnight.
The membrane was soaked in a secondary antibody solution (goat anti-rabbit IgG-HRP Antibody (Santa Cruz; sc-2030) 1/2,000 in Rinse buffer), and shaken at room temperature at 40 rpm for 1 hour.
After the membrane was washed for 45 minutes in the same way as after the primary antibody reaction, the membrane was soaked in a chemiluminescent reaction solution (ECL Western Blotting Detection Reagents, GE Healthcare) for about 1 minute. An excess of the reaction solution was removed, and then the membranes were arranged on a transparent film and sandwiched with it, with which an X-ray film was exposed in a darkroom (for about several seconds to 60 seconds) to develop the film.
The X-ray film was scanned to take the image, for which the band was measured by using the image analysis software “Image J” to determine the respective amounts of pAMPK and AMPK.

Row | Compound | pAMPK/AMPK (%) (25 μM) | pAMPK/AMPK (%) (50 μM)
1 | Cc1ccccc1CN1CCC(NC(=O)COc2ccc(C(C)C)cc2)CC1 [Compound 1] | 70.10 | 63.92
2 | CC(C)c1ccc(OCC(=O)NC2CCN(C(C)c3ccccc3)CC2)cc1 (stereo not drawn) [Compound 2] | 77.78 | 90.47
3 | Cc1cc(OCC(=O)NC2CCN(C(N)=O)CC2)ccc1C(C)C [Compound 3] | 39.02 | 44.32
4 | COc1ccccc1CN1CCC(NC(=O)COc2ccc(C)cc2)CC1 [Compound 4] | 47.44 | 45.44
5 | CCc1ccc(OCC(=O)NC2CCN(Cc3ccc(OC)c(F)c3)CC2)cc1 [Compound 5] | 69.72 | 62.88
6 | CC(C)(C)c1ccc(OCC(=O)NC2CCN(Cc3ccc(F)cc3)CC2)cc1 [Compound 6] | 24.57 | 60.56
7 | CC(c1ccccc1)N1CCC(NC(=O)COc2ccc(-c3ccccc3)cc2)CC1 (stereo not drawn) [Compound 7] | 79.86 | 94.13
8 | Cc1ccc(C(=O)N2CCC(NC(=O)COc3ccc(C(F)(F)F)cc3)CC2)cc1 [Compound 8] | 77.49 | 72.23
9 | CC(c1ccccc1)N1CCC(NC(=O)COc2ccc(C(F)(F)F)cc2)CC1 (stereo not drawn) [Compound 9] | 23.69 | 62.46
10 | O=C(COc1ccc(I)cc1)NC1CCN(Cc2ccccc2)CC1 [Compound 10] | 83.62 | 72.56
11 | COc1cc(C(C)=O)ccc1OCC(=O)NC1CCN(C(C)c2ccccc2)CC1 (stereo not drawn) [Compound 13] | 40.65 | 39.95
12 | CC(=O)c1ccc(OCC(=O)NC2CCN(Cc3ccccc3)CC2C)cc1 (stereo not drawn) [Compound 14] | 63.62 | 51.87
13 | CCC(=O)c1ccc(OCC(=O)NC2CCN(Cc3ccccc3C)CC2)cc1 [Compound 16] | 55.49 | 46.30
14 | CCC(=O)c1ccc(OCC(=O)NC2CCN(Cc3ccc(Cl)c(Cl)c3)CC2)cc1 [Compound 17] | 88.72 | 75.82
15 | CCC(=O)c1ccc(OCC(=O)NC2CCN(Cc3ccccc3)CC2C)cc1 (stereo not drawn) [Compound 18] | 59.58 | 72.81
16 | NC(=O)c1ccc(OCC(=O)NC2CCN(Cc3ccc(F)c(F)c3)CC2)cc1 [Compound 20] | 47.30 | 60.30
17 | CCOc1ccc(C(=O)N2CCC(NC(=O)COc3ccc([N+](=O)[O-])cc3)CC2)cc1 [Compound 22] | 61.45 | 67.26
18 | CCOc1ccccc1C(=O)N1CCC(NC(=O)OCc2ccc([N+](=O)[O-])cc2)CC1 [Compound 23] | 51.41 | 49.81
19 | COc1ccc(CN2CCC(NC(=O)COc3ccc([N+](=O)[O-])cc3)CC2)cc1F [Compound 24] | 23.68 | 60.46
20 | O=C(COc1ccc(N2CCCC2=O)cc1)NC1CCN(C(=O)c2ccccc2F)CC1 [Compound 25] | 40.07 | 42.87
21 | CC1CN(Cc2ccccc2)CCC1NC(=O)COc1ccc(N2CCCC2=O)cc1 (stereo not drawn) [Compound 26] | 55.06 | 56.65
22 | CCOc1ccc(C(=O)N2CCC(NC(=O)COc3ccc(N4CCCC4=O)cc3)CC2)cc1 [Compound 27] | 45.54 | 37.30
23 | Cc1cccc(CN2CCC(NC(=O)COc3ccc(C4SCCCS4)cc3)CC2)c1 [Compound 28] | 71.21 | 78.89

Row | Compound | pAMPK/AMPK (%) (25 μM) | pAMPK/AMPK (%) (50 μM)
24 | Cc1ccc(C(=O)N2CCC(NC(=O)COc3ccc(C4SCCCS4)cc3)CC2)cc1 [Compound 29] | 72.45 | 74.42
25 | CCOc1ccc(OCC(=O)NC2CCN(Cc3ccccc3C)CC2)cc1 [Compound 39] | 64.98 | 61.18
26 | CCCOc1ccc(OCC(=O)NC2CCN(Cc3ccccc3)C(C)C2)cc1 (stereo not drawn) [Compound 41] | 62.03 | 69.38
27 | CCCOc1ccc(OCC(=O)NC2CCN(C(=O)c3ccc(C)cc3)CC2)cc1 [Compound 42] | 69.97 | 89.62
28 | CCCOc1ccc(OCC(=O)NC2CCN(C(C)c3ccccc3)CC2)cc1 (stereo not drawn) [Compound 43] | 77.13 | 82.95
29 | CCCOc1ccc(OCC(=O)NC2CCN(C(=O)c3ccc(OCC)cc3)CC2)cc1 [Compound 44] | 72.14 | 78.77
30 | O=C(COc1ccc(Oc2ccccn2)cc1)NC1CCN(Cc2ccccc2)CC1 [Compound 45] | 67.44 | 82.01
31 | COc1ccccc1CN1CCN(C(=O)CCNC(=O)c2ccccc2C)CC1 [Compound 49] | 42.40 | 34.07
32 | COc1ccc(CN2CCN(C(=O)CCNC(=O)c3ccccc3C)CC2)cc1OC [Compound 50] | 39.00 | 71.13
33 | COc1ccc(CN2CCN(C(=O)CCNC(=O)c3ccccc3)CC2)c(OC)c1OC [Compound 51] | 33.33 | 55.14
34 | CC(C)(C)c1ccc(C(=O)NCCC(=O)N2CCN(Cc3cccc(O)c3)CC2)cc1 [Compound 52] | 66.63 | 85.17
35 | O=C(NCCC(=O)N1CCN(Cc2cccc(O)c2)CC1)c1ccc(Cl)cc1 [Compound 54] | 57.51 | 33.78
36 | O=C(NCCC(=O)N1CCN(Cc2ccc(F)cc2Cl)CC1)c1ccc(Cl)cc1 [Compound 55] | 61.64 | 105.20
37 | O=C(NCCC(=O)N1CCN(Cc2cccc(O)c2)CC1)c1ccc(Br)cc1 [Compound 56] | 49.23 | 40.38
38 | COc1ccccc1CN1CCN(C(=O)CCNC(=O)c2ccc(Cl)cc2)CC1 [Compound 57] | 30.26 | 45.31
39 | COc1ccccc1CN1CCN(C(=O)CCNC(=O)c2ccc(Br)cc2)CC1 [Compound 58] | 41.20 | 62.58
40 | COc1ccc(CN2CCN(C(=O)CCNC(=O)c3ccc(Br)cc3)CC2)cc1OC [Compound 59] | 74.09 | 78.14
41 | COc1ccc(CN2CCN(C(=O)CCNC(=O)c3ccc(Cl)cc3)CC2)c(OC)c1OC [Compound 60] | 34.44 | 76.81
42 | CCOc1ccc(CN2CCN(C(=O)CCNC(=O)c3ccc(F)cc3Cl)CC2)cc1 [Compound 61] | 78.20 | 76.51
43 | COc1ccc(CN2CCN(C(=O)CCNC(=O)c3ccc(F)cc3F)CC2)cc1OC [Compound 62] | 72.75 | 80.92
44 | Cc1ccccc1CN1CCN(C(=O)CCNC(=O)c2ccc([N+](=O)[O-])cc2)CC1 [Compound 63] | 65.40 | 68.22
45 | COc1ccc(CN2CCN(C(=O)CCNC(=O)c3ccc([N+](=O)[O-])cc3)CC2)cc1 [Compound 65] | 62.79 | 69.84
